Assay results as given in patent US20040063790A1, “Methods for inhibition of angiogenesis” (The Scripps Research Institute, priority 1996, published 2004).
[ ]: non-standard residue; d: D form.

Columns and labels:
vascular cell apoptosis = test: Apoptosis in bFGF-treated CAM, Apop Tag staining; format: in vivo, chick; settings: 300 μg/ml; treated two days prior; versus PBS or control peptide 69601
Experimental: CAM assays with growth factor-induced angiogenesis, as described in Example 4A, were also performed with the synthetic peptides of this invention to determine the effect of cyclic peptides on apoptosis. The peptides cyclo-RGDfV (66203) and cyclo-RADfV (69601) were prepared as described in Example 1. The peptide solutions or PBS were injected into the CAM preparation at a concentration of 300 μg/ml. At 24 and 48 hours, the filter paper and surrounding CAM tissue was dissected and stained with the Apop Tag to detect apoptosis.

M21-L melanoma tumor = test: In vivo chimeric mouse:human assay; design: species or system SCID mouse; settings: intravenous, FIG. 18
Experimental: An in vivo chimeric mouse:human model was generated by replacing a portion of skin from a SCID mouse with human neonatal foreskin (FIG. 4). After the skin graft was established, the human foreskin was inoculated with carcinoma cells. After a measurable tumor was established, either an αvβ3 antagonist or PBS was injected into the mouse tail vein. Following a 2-3 week period, the tumor was excised and analyzed by weight and histology.
The in vivo chimeric mouse:human model is prepared essentially as described in Yan, et al., J. Clin. Invest., 91:986-996 (1993). Briefly, a 2 cm^2 square area of skin was surgically removed from a SCID mouse (6-8 weeks of age) and replaced with a human foreskin. The mouse was anesthetized and the hair removed from a 5 cm^2 area on each side of the lateral abdominal region by shaving. Two circular graft beds of 2 cm^2 were prepared by removing the full thickness of skin down to the fascia. Full thickness human skin grafts of the same size derived from human neonatal foreskin were placed onto the wound beds and sutured into place. […]
In a procedure similar to that described above for monoclonal antibodies, peptide antagonists of αvβ3 were injected intravenously into the tail vein of SCID mice having measurable M21-L tumors. […] The mean volume and weight of resected tumors following treatment were determined with the results respectively shown in FIGS. 19A and 19B.

FgM tumors = test: Tumor regression in the CAM assay, FgM; format: in vivo, chick; settings: 100 μg intravenously 18 hours post-implantation; FIG. 17
Experimental: As described in Example 5, in addition to visually assessing the effect of anti-αvβ3 antagonists on growth factor or tumor induced angiogenesis, the effect of the antagonists was also assessed by measuring any changes to the tumor mass following exposure. For this analysis, the tumor-induced angiogenesis CAM assay system was prepared as described in Example 4C. At the end of the 7 day incubation period, the resulting tumors were resected from the CAMs and trimmed free of any residual CAM tissue, washed with 1 ml of phosphate buffer saline and wet weights were determined for each tumor.
To further assess the effects of αvβ3 antagonists on tumor growth and survival, fragments of human melanoma and fragments of carcinomas of the lung, pancreas, and larynx were placed on CAMS of 10-day old embryos as described in Example 3A.
Additional tumor regression assays were performed with the αvβ3-reactive peptide 85189 (SEQ ID NO: 15) against 69601 as a control. The assays were performed as described above with the exception that 100 μg of peptide was intravenously injected into the CAM at 18 hours post-implantation. After 48 hours more, the tumors were then resected and wet weights were obtained.

[1] = tested on: growth factor-induced corneal angiogenesis; test: In vivo rabbit eye model assay; settings: both vFGF and VEGF stimulated eyes
Description: The effect of anti-αvβ3 antagonists on growth factor-induced angiogenesis can be observed in naturally transparent structures as exemplified by the cornea of the eye. […] Stimulators of angiogenesis, such as bFGF, when applied to the cornea induce the growth of new blood vessels from the rim of the cornea. Antagonists of angiogenesis, applied to the cornea, inhibit the growth of new blood vessels from the rim of the cornea. Thus, the cornea undergoes angiogenesis through an invasion of endothelial cells from the rim of the cornea into the tough collagen-packed corneal tissue which is easily visible. The rabbit eye model assay therefore provides an in vivo model for the direct observation of stimulation and inhibition of angiogenesis following the implantation of compounds directly into the cornea of the eye.
Each experiment consisted of eight rabbits in which one eye received a pellet comprising 100 nanograms (ng) bFGF and the other eye received a pellet comprising 1 microgram (μg) VEGF. The pellets were inserted into the corneal pocket as described above, and the cytokines subsequently stimulated the growth of new blood vessels into the cornea. […] After 7 days, the cornea were evaluated as described above.

Substance	increase in Apop Tag staining (vascular cell apoptosis) [fold]	tumor volume (M21-L melanoma tumor)	effect on tumor weight, FgM (FgM tumors)	corneal blood vessel growth at 7 days [1]
cyclo (RGDfV) [Peptide 66203]	3 to 4	–	–	–
cyclo (RADfV) (cyclo(RAD[dF]V); SMILES CC(C)[C@@H]1NC(=O)[C@@H](Cc2ccccc2)NC(=O)[C@H](CC(=O)O)NC(=O)[C@H](C)NC(=O)[C@H](CCCNC(=N)N)NC1=O) [Peptide 69601, reference compound]	–	approximately 360 mm^3	lack of effect	substantial corneal blood vessel growth
